Reference: paper PMC7156458, “Synthetic biology based construction of biological activity-related library of fungal decalin-containing diterpenoid pyrones” (Nature Communications, 2020)
“And” between values parts separate entries of the source, which are not always exact repeats. Identical values can stand only once. Like-named read-outs stand apart in the source and are kept apart here.

Experiments:
SF-539 = experiment: cells; parameters: species or system JFCR39 human cancer cell lines; JFCR39 panel growth inhibition, sulforhodamine B total protein after 48 h; settings: for GI50: Homo sapiens, SF-539, 48 h
Method in brief: (§1)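 Growth inhibition in JFCR39 human cancer lines was quantified by the SRB total-protein method following 48 h compound treatment. GI50 came from duplicate runs.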

MKN-B = experiment: cells; parameters: species or system JFCR39 human cancer cell lines; JFCR39 panel growth inhibition, sulforhodamine B total protein after 48 h; settings: 48 h
Method in brief: as §1

MKN-A = experiment: cells; parameters: species or system JFCR39 human cancer cell lines; JFCR39 panel growth inhibition, sulforhodamine B total protein after 48 h; settings: 48 h
Method in brief: as §1

HCC2998 = experiment: cells; parameters: species or system JFCR39 human cancer cell lines; JFCR39 panel growth inhibition, sulforhodamine B total protein after 48 h; settings: for GI50: Homo sapiens, HCC 2998, 48 h
Method in brief: as §1

HT-29 = experiment: cells; parameters: species or system JFCR39 human cancer cell lines; JFCR39 panel growth inhibition, sulforhodamine B total protein after 48 h; settings: for GI50: Homo sapiens, HT-29, 48 h
Method in brief: as §1

[1] = tested on: human immunodeficiency virus-1 (HIV-1); experiment: anti-HIV MAGI assay; assay type: cell-based; settings: anti-HIV
Description: (§2) We examined the inhibitory activities of DDPs against various species of bacteria (both gram-negative and gram-positive bacteria), fungi and viruses. […] In contrast, preliminary screening of the DDPs for anti-viral agents with hepatitis B virus (HBV), measles virus (MV), Epstein-Barr virus (EBV), herpes simplex virus (HSV) and human immunodeficiency virus-1 (HIV-1) indicated their selective inhibition of HIV.

MCF-7 cells = experiment: mammosphere formation assay; assay type: cell-based, human; settings: MCF-7, 5 μM; for MFE (%) ave / MFE (control = 1) ave / MFE (%): 7 days; for MFE (%) ave: mean of 3, control 0.87; for MFE (control = 1) ave: relative to control = 1; for MFE (%): single replicates
[2] = tested on: hepatitis B virus (HBV), measles virus (MV), Epstein-Barr virus (EBV), herpes simplex virus (HSV); experiment: preliminary anti-viral screening (other viruses); assay type: cell-based
Description: as §2

DL1 cells = experiment: cytotoxicity in Drosophila DL1 cells; assay type: cell-based; settings: DL1 cells; for IC50: Drosophila melanogaster, cytotoxicity
Procedure: (§3) We screened the DDPs on the Drosophila assay system for cytotoxicity, inhibitory activity of innate immune signalling and insecticidal activity. The cytotoxicity of the DDPs was evaluated using two cell lines, embryonic macrophage-derived DL1 cells[58]–[60] and larval blood cell-derived l(2)mbn cells, and their IC50 values are listed in Supplementary Table 23.

[3] = cytotoxicity in Drosophila DL1 cells; assay type: cell-based; settings: Drosophila, DL1 cells (embryonic macrophage-derived), DL1 cells
Procedure: as §3

[4] = Human immunodeficiency virus 1, MAGI, average of numeric determinations, read-out: Avg. EC50
[5] = average of two replicates, read-out: IC50 Average
[6] = replicate 1, read-out: IC50 (1)
[7] = replicate 2, read-out: IC50 (2)
[8] = replicate 1, relative to DMSO 1%, read-out: % viability, viability 1
[9] = replicate 2, relative to DMSO 1%, read-out: % viability, viability 2
[10] = 48 h, inhibitor, Log GI50, 48 h

Structure (SMILES)	GI50 (SF-539) [µM]	GI50 (MKN-B) [µM]	GI50 (MKN-A) [µM]	GI50 (HCC2998) [µM]	GI50 (HT-29) [µM]	EC50 [1, 4] [µM]	MFE (%) ave (MCF-7 cells) [%]	MFE (control = 1) ave (MCF-7 cells)	MFE (%) (MCF-7 cells)	effect on other viruses [2]	Luminescence Raw1 (DL1 cells; 0.04 µM, replicate 1)	Luminescence Raw2 (DL1 cells; 0.04 µM, replicate 2)	Luminescence Raw1 (DL1 cells; 0.2 µM, replicate 1)	Luminescence Raw2 (DL1 cells; 0.2 µM, replicate 2)	Luminescence Raw1 (DL1 cells; 1 µM, replicate 1)	Luminescence Raw2 (DL1 cells; 1 µM, replicate 2)	Luminescence Raw1 (DL1 cells; 4 µM, replicate 1)	Luminescence Raw2 (DL1 cells; 4 µM, replicate 2)	Luminescence Raw1 (DL1 cells; 10 µM, replicate 1)	Luminescence Raw2 (DL1 cells; 10 µM, replicate 2)	further results
C=C1CC[C@H]2[C@]3(C)C[C@@H](C=C(C)C)O[C@H]3CC[C@]2(C)[C@@H]1Cc1c(OC)oc(CO)c(C)c1=O [Compound 17]	12.2	10	0.408	14	14.3	1.36	0.65	0.75	0.66% and 0.68% and 0.60%	without affecting other viruses	2678864	2844064	2387791	2484453	1292136	490161	264802	275258	251461	258312	EC50 ([1]; Human immunodeficiency virus 1, MAGI, MAGI assay, read-out: EC50): < 0.2 µM; Luminescence Raw1 (DL1 cells; 20 µM, replicate 1): 208914; Luminescence Raw2 (DL1 cells; 20 µM, replicate 2): 269129; IC50 (DL1 cells; [5]): 2.78 µM; IC50 (DL1 cells; average±SEM, read-out: IC50): 2.78 ± 0.68 µM; IC50 (DL1 cells; [6]): 3.46 µM; IC50 (DL1 cells; [7]): 2.1 µM; viability at 0.04 µM [3, 8]: 195%; viability at 0.04 µM [3, 9]: 207%; viability at 0.2 µM [3, 8]: 174%; viability at 0.2 µM [3, 9]: 181%; viability at 1 µM [3, 8]: 94.2%; viability at 1 µM [3, 9]: 35.7%; viability at 4 µM [3, 8]: 19.3%; viability at 4 µM [3, 9]: 20.1%; viability at 10 µM [3, 8]: 18.3%; viability at 10 µM [3, 9]: 18.8%; viability at 20 µM [3, 8]: 15.2%; viability at 20 µM [3, 9]: 19.6%
C=C1CC[C@@H]2[C@](C)(CC[C@H]3O[C@H](C=C(C)C)C[C@@]23C)[C@@H]1Cc1c(OC)oc(CO)c(C)c1=O [Compound 20]	12.3	1.06	0.0986	15.9	14.6	4.07	0.77	0.89	0.76% and 0.80%	without affecting other viruses	2619350	2864984	2345231	2278506	282109	273095	279585	290402	280667	263720	Luminescence Raw1 (DL1 cells; 20 µM, replicate 1): 281027; Luminescence Raw2 (DL1 cells; 20 µM, replicate 2): 336916; IC50 (DL1 cells; [5]): 0.269 µM; IC50 (DL1 cells; average±SEM, read-out: IC50): 0.27 ± 0.03 µM; IC50 (DL1 cells; [6]): 0.299 µM; IC50 (DL1 cells; [7]): 0.238 µM; viability at 0.04 µM [3, 8]: 191%; viability at 0.04 µM [3, 9]: 209%; viability at 0.2 µM [3, 8]: 171%; viability at 0.2 µM [3, 9]: 166%; viability at 1 µM [3, 8]: 20.6%; viability at 1 µM [3, 9]: 19.9%; viability at 4 µM [3, 8]: 20.4%; viability at 4 µM [3, 9]: 21.2%; viability at 10 µM [3, 8]: 20.5%; viability at 10 µM [3, 9]: 19.2%; viability at 20 µM [3, 8]: 20.5%; viability at 20 µM [3, 9]: 24.6%
C=C1CCC2C(C)(CCC=C(C)C)C(O)CCC2(C)C1Cc1c(OC)oc(CO)c(C)c1=O (centres unmarked) [Compound 16]							0.87	1.00	0.62% and 1.01% and 0.96%												Log GI50 (SF-539; [10]): -4.953 M; Log GI50 (MKN-B; inhibitor, Log GI50, 48 h): -5.237 M; Log GI50 (MKN-A; inhibitor, Log GI50, 48 h): -5.445 M; Log GI50 (HCC2998; [10]): -4.871 M; Log GI50 (HT-29; [10]): -4.904 M; EC50 ([1]; average of numeric determinations, read-out: Avg. EC50): 0.0483 µM; EC50 ([1]; single determinations, read-out: Efficacy (EC50)): 0.0556 µM and 0.0364 µM and 0.0546 µM and 0.0464 µM; effect on sphere formation (MCF-7 cells): did not affect sphere formation
C=C1CC[C@@H]2[C@](C)(CC[C@H]3O[C@H](C=C(C)C)C[C@@]23C)[C@@H]1Cc1c(OC)oc(C)c(C)c1=O [Compound 22, O-methylated higginsianin A]	10.5	0.54	0.211	8.85	7.66	0.143	0.41	0.47	0.40% and 0.42%												effect on sphere formation (MCF-7 cells): clearly inhibited sphere formation
